According to patent US20250122181A1, “BENZIMIDAZOLES AS MODULATORS OF IL-17” (Janssen Pharmaceutica NV, priority 2021, published 2025):

Legend:
[1] = molecular target: T1, IL-17A(FLAG-Tagged): IL-17RA(His-Tagged) (Homo sapiens, UniProt Q16552, K93Q); assay: IL-17A(FLAG-Tagged): IL-17RA(His-Tagged) Binding Disruption Eu-HTRF Assay, Protocol 1; settings: Protocol 1, FLAG tagged IL-17A 2.5 nM; simple average if tested more than once
Outline: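 IC50 came from a one-site competition fit of the acceptor/donor (665/620 nm) HTRF ratio. His-tagged IL-17RA, Eu-anti-FLAG and D2-anti-His were added after a 1 h rt compound preincubation with FLAG-tagged IL-17A dimer in PBS/0.01% Triton X-100, followed by 2 h at rt before reading.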

[2] = molecular target: T1, IL-17A(FLAG-Tagged): IL-17RA(His-Tagged); assay: IL-17A(FLAG-Tagged): IL-17RA(His-Tagged) Binding Disruption Eu-HTRF Assay, Protocol 2; settings: Protocol 2, FLAG tagged IL-17A 1 nM; simple average if tested more than once
Text: An antibody directed against the FLAG tag of IL-17A (SEQ ID NO: 1) is labeled with the HTRF donor chromophore (Europium-cryptate). IL-17A is present as a dimer that is “locked into” this quaternary structure due to the formation of loop-spanning […] disulfide bridges. The construct of IL-17RA used in the assay excludes the […] portion of the receptor and is fused to a C-terminal 10×His tag (SEQ ID NO:2). An antibody directed against the His tag of the IL-17RA chimera is labeled with the HTRF acceptor chromophore (“D2”). The fluorescence-resonance energy transfer (FRET) depends on the vicinity of the donor chromophore to the acceptor, and interruption of the binding between the IL-17A and IL-17RA causes the reduction/loss of FRET. Therefore, this assay allows to evaluate the compound effect on the binding IL-17A and IL-17RA by monitoring the fluorescence intensity of donor vs acceptor. The assay was run using either Protocol 1 or Protocol 2 as described below.
Protocol 2. 40 nl of 2-fold serial diluted compound solution for total 22 dilution points is added into each well of a 1536-well, white, low-volume, non-binding plate (Greiner #782904), then 2 μl of FLAG tagged IL-17A at 2× final concentration (1 nM) in solution of PBS+0.01% Triton-X100 is added to each well. The assay plate is briefly centrifuged then incubated for 1 h at rt. A mixed solution is prepared containing 2×5 nM 10HIS×IL-17RA, 2×2.5 nM Eu-anti-FLAG (CISBIO), 2×5 nM D2-anti-HIS (CISBIO) in PBS+0.01% Triton-X100+200 mM Potassium Fluoride (Sigma 60238) and 2 μl of mix is added to each well of the assay plate. The plate is briefly centrifuged then incubated for 2 h at rt. The HTRF intensities at the wavelength of donor (615 nm) and acceptor (665 nm) are measured using BMG Pherastar. The ratio between intensities at two wavelengths is calculated and plotted against the compound concentration and the data is fitted to a one-site competition model to yield IC50 of the compound.

[3] = test system: IL-17A-induced G-CSF production in human normal keratinocyte (NHK); assay: NHK Assay: IL-17A-induced G-CSF production in human normal keratinocyte; assay type: cell-based; settings: Homo sapiens, Keratinocyte, 24 h, IL-17A 5 ng/mL, simple average if tested more than once
Outline: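 Stimulus rhIL-17A 5 ng/mL final, premixed 1 h rt with compound; adult NHK, 5% FBS, 0.2% DMSO. Viability by CellTiter-Glo vs DMSO.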

[4] = test system: patients with moderate-to-severe HS; settings: seven of nine patients with moderate-to-severe HS, open-label pilot-trial; cited from earlier work

T1 sequence (Q16552 with tags, fused parts or gaps K93Q): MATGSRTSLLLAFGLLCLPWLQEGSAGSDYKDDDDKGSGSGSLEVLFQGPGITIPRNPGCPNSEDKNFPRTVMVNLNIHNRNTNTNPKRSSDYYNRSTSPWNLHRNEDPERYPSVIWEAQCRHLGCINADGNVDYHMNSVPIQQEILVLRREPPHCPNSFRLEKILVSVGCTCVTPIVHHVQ

| Compound | IC50 [1] [nM] | IC50 [2] [nM] | IC50 [3] [nM] | patients achieved HiSCR [4] [%] |
| --- | --- | --- | --- | --- |
| C[C@H](c1ccc2[nH]c(C(COC(C)(C)C(F)(F)F)NC(=O)c3nonc3C3CC3)nc2c1)N1C[C@@H](C(F)(F)F)NC1=O (single isomer, unassigned) [Example 7, 4-Cyclopropyl-N—((R*)-1-(5-((R)-1-((S)-2-oxo-4-(trifluoromethyl)imidazolidin-1-yl)ethyl)-1H-benzo[d]imidazol-2-yl)-2-((1,1,1-trifluoro-2-methylpropan-2-yl)oxy)ethyl)-1,2,5-oxadiazole-3-carboxamide] | < 50 | < 50 | < 50 |  |
| secukinumab |  |  |  | 78 |
| CC(C)(OC[C@H](NC(=O)c1nonc1C1CC1)c1nc2cc(CN3C[C@@H](C(F)(F)F)NC3=O)ccc2[nH]1)C(F)(F)F (single isomer, unassigned) [Example 17] | < 50 | < 50 | < 50 |  |

The next lines start with results.

| IC50 [1] [nM] | IC50 [2] [nM] | Compound | IC50 [3] [nM] | patients achieved HiSCR [4] [%] |
| --- | --- | --- | --- | --- |
| < 50 | < 50 | Cc1nonc1C(=O)N[C@@H](COC(C)(C)C(F)(F)F)c1nc2cc([C@@H](C3CC3)N3C[C@@H](C(C)C)NC3=O)ccc2[nH]1 [Example 83, N—((R)-1-(5-((R)-Cyclopropyl((R)-4-isopropyl-2-oxoimidazolidin-1-yl)methyl)-1H-benzo[d]imidazol-2-yl)-2-((1,1,1-trifluoro-2-methylpropan-2-yl)oxy)ethyl)-4-methyl-1,2,5-oxadiazole-3-carboxamide] | < 50 |  |
| < 50 | < 50 | COC[C@H](c1ccc2[nH]c(C(COC(C)(C)C(F)(F)F)NC(=O)c3ncnn3C(C)C)nc2c1)N1CC(F)(F)CNC1=O (single isomer, unassigned) [Example 52, N—((R*)-1-(5-((S)-1-(5,5-Difluoro-2-oxotetrahydropyrimidin-1(2H)-yl)-2-methoxyethyl)-1H-benzo[d]imidazol-2-yl)-2-((1,1,1-trifluoro-2-methylpropan-2-yl)oxy)ethyl)-1-isopropyl-1H-1,2,4-triazole-5-carboxamide] | < 50 |  |
